Reference: patent US5231093A, “Carbamate derivatives of 4-amino-3-isoxazolidinones, 3-amino-1-hydroxypyrrolidin-2-ones and 1-amino-1-cyclopropanecarboxylic acid analogs” (priority 1992, dated 1993)
Counter-ions that a name gives are not always drawn. Like-named read-outs stand apart in the source and are kept apart here.

Columns and labels:
[1] = molecular target: T1, acetylcholinesterase (Rattus norvegicus, UniProt P37136); experiment: In Vitro Inhibition of Acetylcholinesterase Activity in Rat Striatum; format: biochemical
T1 construct: corpora striata dissected free, weighed and homogenized in 19 volumes; from tissue; host or cells: corpus striatum of male Wistar rats, whole homogenate in 0.05M phosphate buffer pH 7.2
T1 sequence (P37136 32-614): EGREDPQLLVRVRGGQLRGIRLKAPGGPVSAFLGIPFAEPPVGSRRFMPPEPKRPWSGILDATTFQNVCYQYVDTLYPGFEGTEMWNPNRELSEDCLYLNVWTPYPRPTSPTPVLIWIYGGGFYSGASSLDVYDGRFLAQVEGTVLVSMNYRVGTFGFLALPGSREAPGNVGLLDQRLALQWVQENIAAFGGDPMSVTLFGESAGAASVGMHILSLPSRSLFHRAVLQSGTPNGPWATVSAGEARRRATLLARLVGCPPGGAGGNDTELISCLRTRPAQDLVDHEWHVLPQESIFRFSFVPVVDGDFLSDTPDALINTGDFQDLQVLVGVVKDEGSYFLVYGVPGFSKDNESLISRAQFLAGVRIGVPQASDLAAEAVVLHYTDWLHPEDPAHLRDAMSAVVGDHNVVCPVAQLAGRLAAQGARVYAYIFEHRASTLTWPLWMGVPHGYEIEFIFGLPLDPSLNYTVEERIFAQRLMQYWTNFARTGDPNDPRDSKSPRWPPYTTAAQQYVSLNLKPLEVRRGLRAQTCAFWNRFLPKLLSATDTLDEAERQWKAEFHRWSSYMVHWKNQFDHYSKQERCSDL
Excerpt: Cholinesterases are found throughout the body, both in the brain and in serum. However, only brain acetylcholinesterase (AChE) distribution is correlated with central cholinergic innervation.
The method described below was used in this invention for assaying cholinesterase activity. This is a modification of the method of Ellman et al., Biochem. Pharmacol. 7, 88 (1961).
1. 0.05M Phosphate buffer, pH 7.2
(c) add (a) to (b) until pH reaches 7.2
4. […] Drugs are serially diluted (1:10) such that the final concentration (in cuvette) is 10^-4 M and screened for activity. If active, IC50 values are determined from the inhibitory activity of subsequent concentrations.
Male Wistar rats are decapitated, brains rapidly removed, corpora striata dissected free, weighed and homogenized in 19 volumes (approximately 7 mg protein/ml) of 0.05M phosphate buffer, pH 7.2 using a Potter-Elvehjem homogenizer. A 25 microliter aliquot of the homogenate is added to 1.0 milliter vehicle or various concentrations of the test drug and preincubated for 10 minutes at 37° C.
Enzyme activity is measured with the Beckman DU-50 spectrophotometer. This method can be used for IC50 determinations and for measuring kinetic constants.
Reagents are added to the blank and sample cuvettes as follows:
Blank values are determined for each run to control for non-enzymatic hydrolysis of substrate and these values are automatically subtracted by the kindata program available on kinetics soft-pac module. This program also calculates the rate of absorbance change for each cuvette.
Substrate concentration is 10 mM diluted 1:2 in assay yielding final concentration of 5 mM. DTNB concentration is 0.5 mM yielding 0.25 mM final concentration. [formula] IC50 values are calculated from log-probit analysis

[2] = tested on: Scopolamine Induced Memory Deficit; format: in vivo, mice
Description: In this assay mice are tested for their ability to remember an unpleasant stimulus for a period of 24 hours. A mouse is placed in a chamber that contains a dark compartment; a strong incandescent light drives it to the dark compartment, where an electric shock is administered through metal plates on the floor. The animal is removed from the testing apparatus and tested again, 24 hours later, for the ability to remember the electric shock.
If scopolamine, an anticholinergic agent that is known to cause memory impairment, is administered before an animal's initial exposure to the test chamber, the animal re-enters the dark compartment shortly after being placed in the test chamber 24 hours later. This effect of scopolamine is blocked by an active test compound, resulting in a greater interval before re-entry into the dark compartment.
The results for an active compound are expressed as the percent of a group of animals in which the effect of scopolamine is blocked, as manifested by an increased interval between being placed in the test chamber and re-entering the dark compartment.
Results of this assay for some of the compounds of this invention and those for tacrine (reference compound) are presented in Table 2.

Structure (SMILES)	IC50 [1]	% of Animals with Scopolamine Induced Memory Deficit Reversal ([2]; mouse, in vivo, 0.63 mg/kg)	% of Animals with Scopolamine Induced Memory Deficit Reversal ([2]; mice, 0.3 mg/kg of body weight, s.c, 24 hours)
CN1CC[C@@]2(C)c3cc(OC(=O)N[C@@H]4CCN(O)C4=O)ccc3N(C)[C@@H]12 [(3aS-cis)-1,2,3,3a,8,8a-Hexahydro-1,3a,8-trimethylpyrrolo[2,3-b]indol-5-yl [2-oxo-1-(hydroxy)-3R-pyrrolidinyl]carbamate, citrate salt]	2.31 µM		
Nc1c2c(nc3ccccc13)CCCC2 [Tacrine, reference compound]		13%	
CN1CC[C@@]2(C)c3cc(OC(=O)N[C@@H]4CCN(OCc5ccccc5)C4=O)ccc3N(C)[C@@H]12 [(3aS-cis)-1,2,3,3a,8,8a-Hexahydro-1,3a,8-trimethylpyrrolo-[2,3-b]indol-5yl [2-oxo-1-(phenylmethoxy)-3R-pyrrolidinyl]carbamate]	0.067 µM		
CN1CC[C@@]2(C)c3cc(OC(=O)N[C@@H]4CON(Cc5ccccc5)C4=O)ccc3N(C)[C@@H]12 [(3aS-cis)-1,2,3,3a,8,8a-Hexahydro-1,3a,8-trimethypyrrolo-[2,3-b]indol-5-yl [2-(phenylmethyl)-3-oxo-4R-isoxazolidinyl]-carbamate hemihydrate]	0.5 µM		27%
